Source: patent US11045464B2, “Parenteral formulations of dopamine agonists” (VeroScience LLC, priority 2007, dated 2021)

Test: Stability of SKF-38393 in solution
Assay type: physicochemical
From the text: Formulation 22S was a combination of […], employing the 11S base formulation with the two active agents. […] A short study has been run to ensure the stability of SKF-38393. […] In contrast, in alcohol solution, the API decomposes rapidly, with >5% of the API already lost within the first hour.

## Oc1cc2c(cc1O)C(c1ccccc1)CNCC2 (centres unmarked) [SKF-38393]
In alcohol solution, within the first hour
  API lost (decomposition): > 5%
In water buffered by the acidic acid, within 12 h
  decomposition of SKF-38393: no decomposition
